# Experimental data from publication PMC6277767, “Broad and Region-Specific Impacts of the Synthetic Cannabinoid CP 55,940 in Adolescent and Adult Female Mouse Brains” (Frontiers in Molecular Neuroscience, 2018).
# Test system: CD1 female mouse brain lipidome
# Test: Brain-region lipid levels (HPLC/MS/MS lipidomics) 2 h after single i.p. 3 mg/kg CP 55,940 vs vehicle
# Format: in vivo
# Description: The Bloomington Institutional Animal Care and Use Committee of Indiana University reviewed and approved the animal procedures. Female mice from the CD1 strain were utilized to match our study examining THC’s effects on the brain lipidome ([Leishman et al., 2018]). Mice were given a single i.p. injection of either 3 mg/kg CP or 1:1:18 cremophor:ethanol:saline vehicle (please refer to the section “3 mg/kg CP Is Relevant for Synthetic Cannabinoid Abuse and Has Stronger Effects on the Female Mouse Brain Lipidome During Adolescence” for a justification of dose and use of female mice). Three different age groups were given injections: PND 35 and PND 50 adolescents, and adult mice (PND 113). At least eight mice in each age group received CP and at least eight received vehicle. Matching the THC study time course ([Leishman et al., 2018]), mice were sacrificed via rapid decapitation 2 h after injection. Brains were immediately removed and flash-frozen in liquid nitrogen, and then stored at -80°C until dissections were performed. Brains were dissected on an ice-cold dissection plate into the following regions: STR, HIPP, CER, THAL, CTX, HYP, MID, and STEM. These abbreviations for these brain areas will be used exclusively when discussing the results generated by these specific dissections. Each dissected area was immediately placed in liquid nitrogen and then stored at -80°C until used for lipid extraction.
# Tissue extracts were performed as previously described ([Bradshaw et al., 2006]; [Stuart et al., 2013]; [Raboune et al., 2014]; [Leishman et al., 2016a],[b], [2017], [2018]). First, samples were shock frozen in liquid nitrogen, weighed, and transferred to a centrifuge tube. The mass of the largest sample was multiplied by 50 to determine how many milliliters of HPLC-grade methanol (Fisher, Fair Lawn, NJ, United States) to add. Then, samples were spiked with 500 pmol deuterium-labeled NAGly (d8NAGly; Cayman Chemical, Ann Arbor, MI, United States). Samples were placed on ice in darkness for 2 h then individually homogenized and centrifuged at 19,000 × g for 20 min at 20°C. Supernatants were diluted with HPLC water (purified in house) to make a solution of 75% water, 25% supernatant. Lipids were partially purified on C18 solid phase extraction columns (Agilent, Palo Alto, CA, United States). A series of four elutions with 1.5 mL of 60%, 75%, 85%, and 100% methanol were collected ([Stuart et al., 2013]; [Leishman et al., 2016a],[b], [2018]).
# As previously described ([Bradshaw et al., 2006]; [Tan et al., 2006]; [Smoum et al., 2010]; [Stuart et al., 2013]; [Tortoriello et al., 2013]; [Raboune et al., 2014]; [Leishman et al., 2016a],[b], [2017], [2018]), samples were analyzed using an Applied Biosystems API 3000 triple quadrupole mass spectrometer with electrospray ionization (Foster City, CA, United States). Using an Agilent XDB-C18 reversed phase analytical column and optimized mobile phase gradients, 20 μL from each elution were chromatographed. Two Shimadzu 10ADvp pumps (Columbia, MD, United States) provided the pressure for gradient elution. Mobile phase A: 20% methanol, 80% water (v/v) and 1 mM ammonium acetate (Sigma, St. Louis, MO, United States). Mobile phase B: 100% methanol, 1 mM ammonium acetate. Every method run began with 0% mobile phase B, reached 100% mobile phase B flowing at 0.2 mL/min, and gradually returned to 0% mobile phase B.
# This screening library will be referred to as the lipidome when discussing data from this study. HPLC/MS/MS data were analyzed using Analyst software (Applied Biosystems) ([Bradshaw et al., 2006]; [Tan et al., 2006]; [Stuart et al., 2013]; [Tortoriello et al., 2013]; [Raboune et al., 2014]; [Leishman et al., 2016a],[b], [2017], [2018]). Chromatograms (Supplementary Figure 3) were generated by determining the retention time of analytes from the analytical column with a [M-1] or [M+1] parent peak and a fragmentation peak corresponding to the programmed values. […]
smiles,measurement,setting,value
"CCCCCCC(C)(C)c1ccc([C@@H]2C[C@H](O)CC[C@H]2CCCO)c(O)c1 [CP 55,940]",changes in lipid levels that were decreases,PND 50 MID,two
same,number of lipids changed,"PND 50 MID, 62 detected",26
same,2-linoleoyl glycerol level vs vehicle,PND 50 STEM,↓ (1-1.49 times lower than vehicle)
same,2-oleoyl glycerol level vs vehicle,PND 50 STEM,↓ (1-1.49 times lower than vehicle)
same,2-palmitoyl glycerol level vs vehicle,PND 50 STEM,↓ (1-1.49 times lower than vehicle)
same,6-ketoPGF1α level vs vehicle,PND 50 STEM,↓ (1-1.49 times lower than vehicle)
same,Linoleic acid level vs vehicle,PND 50 STEM,↓ (1-1.49 times lower than vehicle)
same,N-arachidonoyl GABA level vs vehicle,PND 50 STEM,↓ (1-1.49 times lower than vehicle)
same,N-arachidonoyl phenylalanine level vs vehicle,PND 50 STEM,↑ (1-1.49 times higher than vehicle)
same,N-arachidonoyl serine level vs vehicle,PND 50 STEM,↓ (1-1.49 times lower than vehicle)
same,N-arachidonoyl taurine level vs vehicle,PND 50 STEM,↓ (1-1.49 times lower than vehicle)
same,N-arachidonoyl tyrosine level vs vehicle,PND 50 STEM,↓ (1-1.49 times lower than vehicle)
same,N-oleoyl methionine level vs vehicle,PND 50 STEM,↓ (1-1.49 times lower than vehicle)
same,N-palmitoyl leucine level vs vehicle,PND 50 STEM,↑ (1-1.49 times higher than vehicle)
same,N-palmitoyl tyrosine level vs vehicle,PND 50 STEM,↑ (1-1.49 times higher than vehicle)
same,Oleic Acid level vs vehicle,PND 50 STEM,↓ (1-1.49 times lower than vehicle)
same,PGE2 level vs vehicle,PND 50 STEM,↓ (1-1.49 times lower than vehicle)
same,PGF2α level vs vehicle,PND 50 STEM,↓ (1-1.49 times lower than vehicle)
same,2-arachidonoyl glycerol level vs vehicle,PND 50 STR,↓ (1-1.49 times lower than vehicle)
same,2-linoleoyl glycerol level vs vehicle,PND 50 STR,↓ (1-1.49 times lower than vehicle)
same,Arachidonic acid level vs vehicle,PND 50 STR,↓ (1-1.49 times lower than vehicle)
same,Linoleic acid level vs vehicle,PND 50 STR,↓ (1-1.49 times lower than vehicle)
same,N-arachidonoyl GABA level vs vehicle,PND 50 STR,↓ (1-1.49 times lower than vehicle)
same,N-arachidonoyl glycine level vs vehicle,PND 50 STR,↓↓ (1.50-1.99 times lower than vehicle)
same,N-arachidonoyl phenylalanine level vs vehicle,PND 50 STR,↓ (1-1.49 times lower than vehicle)
same,N-arachidonoyl taurine level vs vehicle,PND 50 STR,↓ (1-1.49 times lower than vehicle)
same,N-docosahexaenoyl GABA level vs vehicle,PND 50 STR,↓ (1-1.49 times lower than vehicle)
same,N-docosahexaenoyl glycine level vs vehicle,PND 50 STR,↓↓ (1.50-1.99 times lower than vehicle)
same,N-palmitoyl leucine level vs vehicle,PND 50 STR,↑ (1-1.49 times higher than vehicle)
same,N-palmitoyl tyrosine level vs vehicle,PND 50 STR,↑ (1-1.49 times higher than vehicle)
same,N-palmitoyl valine level vs vehicle,PND 50 STR,↑↑ (1.50-1.99 times higher than vehicle)
same,Oleic Acid level vs vehicle,PND 50 STR,↓ (1-1.49 times lower than vehicle)
same,PGF2α level vs vehicle,PND 50 STR,↑ (1-1.49 times higher than vehicle)
same,2-arachidonoyl glycerol level vs vehicle,PND 50 THAL,↓ (1-1.49 times lower than vehicle)
same,2-linoleoyl glycerol level vs vehicle,PND 50 THAL,↓ (1-1.49 times lower than vehicle)
same,2-oleoyl glycerol level vs vehicle,PND 50 THAL,↓ (1-1.49 times lower than vehicle)
same,6-ketoPGF1α level vs vehicle,PND 50 THAL,↑↑ (1.50-1.99 times higher than vehicle)
same,Arachidonic acid level vs vehicle,PND 50 THAL,↓ (1-1.49 times lower than vehicle)
same,Linoleic acid level vs vehicle,PND 50 THAL,↓ (1-1.49 times lower than vehicle)
same,N-arachidonoyl GABA level vs vehicle,PND 50 THAL,↓ (1-1.49 times lower than vehicle)
same,N-arachidonoyl ethanolamine level vs vehicle,PND 50 THAL,↓ (1-1.49 times lower than vehicle)
same,N-arachidonoyl glycine level vs vehicle,PND 50 THAL,↓↓ (1.50-1.99 times lower than vehicle)
same,N-arachidonoyl phenylalanine level vs vehicle,PND 50 THAL,↓↓ (1.50-1.99 times lower than vehicle)
same,N-arachidonoyl taurine level vs vehicle,PND 50 THAL,↓ (1-1.49 times lower than vehicle)
same,N-arachidonoyl tyrosine level vs vehicle,PND 50 THAL,↓ (1-1.49 times lower than vehicle)
same,N-docosahexaenoyl GABA level vs vehicle,PND 50 THAL,↓ (1-1.49 times lower than vehicle)
same,N-linoleoyl GABA level vs vehicle,PND 50 THAL,↓↓ (1.50-1.99 times lower than vehicle)
same,N-palmitoyl leucine level vs vehicle,PND 50 THAL,↑ (1-1.49 times higher than vehicle)
same,N-palmitoyl serine level vs vehicle,PND 50 THAL,↓ (1-1.49 times lower than vehicle)
same,N-stearoyl serine level vs vehicle,PND 50 THAL,↓ (1-1.49 times lower than vehicle)
same,Oleic Acid level vs vehicle,PND 50 THAL,↓ (1-1.49 times lower than vehicle)
same,PGE2 level vs vehicle,PND 50 THAL,↓ (1-1.49 times lower than vehicle)
same,PGF2α level vs vehicle,PND 50 THAL,↓ (1-1.49 times lower than vehicle)
same,changes in NAEs (all decreases),PND 50 brain,16
same,changes in lipoamines derived from AA,PND 50 brain,41
same,decreases in 2-acyl glycerol levels,PND 50 brain,17
same,decreases in PG levels,PND 50 brain,11
same,decreases in free fatty acid levels,PND 50 brain,16
same,increases in PG levels,PND 50 brain,7
same,percentage of detected lipids modified with acute CP,"PND 50 brain, 450 detected",31.33%
same,total changes in lipid levels across the eight regions,adult,97
same,2-arachidonoyl glycerol level vs vehicle,adult CER,↓ (1-1.49 times lower than vehicle)
same,2-linoleoyl glycerol level vs vehicle,adult CER,↓↓ (1.50-1.99 times lower than vehicle)
same,2-oleoyl glycerol level vs vehicle,adult CER,↓ (1-1.49 times lower than vehicle)
same,6-ketoPGF1α level vs vehicle,adult CER,↓ (1-1.49 times lower than vehicle)
same,Arachidonic acid level vs vehicle,adult CER,↓ (1-1.49 times lower than vehicle)
same,Linoleic acid level vs vehicle,adult CER,↓↓ (1.50-1.99 times lower than vehicle)
same,N-arachidonoyl GABA level vs vehicle,adult CER,↓↓ (1.50-1.99 times lower than vehicle)
same,N-arachidonoyl ethanolamine level vs vehicle,adult CER,↓↓ (1.50-1.99 times lower than vehicle)
same,N-arachidonoyl phenylalanine level vs vehicle,adult CER,↓↓↓ (2-2.99 times lower than vehicle)
same,N-arachidonoyl taurine level vs vehicle,adult CER,↓ (1-1.49 times lower than vehicle)
same,N-docosahexaenoyl GABA level vs vehicle,adult CER,↓ (1-1.49 times lower than vehicle)
same,N-docosahexaenoyl ethanolamine level vs vehicle,adult CER,↓ (1-1.49 times lower than vehicle)
same,N-linoleoyl GABA level vs vehicle,adult CER,↓ (1-1.49 times lower than vehicle)
same,N-linoleoyl ethanolamine level vs vehicle,adult CER,↓↓ (1.50-1.99 times lower than vehicle)
same,N-oleoyl serine level vs vehicle,adult CER,↓ (1-1.49 times lower than vehicle)
same,N-oleoyl valine level vs vehicle,adult CER,↑↑↑ (2-2.99 times higher than vehicle)
same,N-palmitoyl tyrosine level vs vehicle,adult CER,↓ (1-1.49 times lower than vehicle)
same,Oleic Acid level vs vehicle,adult CER,↓↓ (1.50-1.99 times lower than vehicle)
same,PGE2 level vs vehicle,adult CER,↓ (1-1.49 times lower than vehicle)
same,PGF2α level vs vehicle,adult CER,↓ (1-1.49 times lower than vehicle)
same,changes in lipid levels that were decreases,adult CER,20
same,changes in lipid levels that were increases,adult CER,1
same,phosphoLEA level vs vehicle,adult CER,↓ (1-1.49 times lower than vehicle)
same,number of lipids changed,"adult CER, 53 detected",21
same,2-linoleoyl glycerol level vs vehicle,adult CTX,↓ (1-1.49 times lower than vehicle)
same,6-ketoPGF1α level vs vehicle,adult CTX,↓ (1-1.49 times lower than vehicle)
same,Arachidonic acid level vs vehicle,adult CTX,↓ (1-1.49 times lower than vehicle)
same,N-arachidonoyl taurine level vs vehicle,adult CTX,↓ (1-1.49 times lower than vehicle)
same,N-linoleoyl GABA level vs vehicle,adult CTX,↓ (1-1.49 times lower than vehicle)
same,N-palmitoyl valine level vs vehicle,adult CTX,↑ (1-1.49 times higher than vehicle)
same,N-stearoyl phenylalanine level vs vehicle,adult CTX,↓↓ (1.50-1.99 times lower than vehicle)
same,PGF2α level vs vehicle,adult CTX,↓ (1-1.49 times lower than vehicle)
same,number of lipids changed,"adult CTX, 58 detected",eight
same,2-linoleoyl glycerol level vs vehicle,adult HIPP,↓ (1-1.49 times lower than vehicle)
same,N-arachidonoyl GABA level vs vehicle,adult HIPP,↓ (1-1.49 times lower than vehicle)
same,N-arachidonoyl alanine level vs vehicle,adult HIPP,↓ (1-1.49 times lower than vehicle)
same,N-arachidonoyl glycine level vs vehicle,adult HIPP,↓ (1-1.49 times lower than vehicle)
same,N-arachidonoyl phenylalanine level vs vehicle,adult HIPP,↓↓ (1.50-1.99 times lower than vehicle)
same,N-docosahexaenoyl GABA level vs vehicle,adult HIPP,↓ (1-1.49 times lower than vehicle)
same,N-oleoyl GABA level vs vehicle,adult HIPP,↓ (1-1.49 times lower than vehicle)
same,N-oleoyl phenylalanine level vs vehicle,adult HIPP,↓ (1-1.49 times lower than vehicle)
